According to patent US8106155B2, “Test kit for determining process for determining antibiotics containing a beta-lactam ring in a biological fluid” (Neogen Corporation, priority 1998, dated 2012):
Like-named read-outs stand apart in the source and are kept apart here.

Assays:
BlaR-CTD receptor [1] = biological target: T1, BlaR-CTD receptor (Bacillus licheniformis, UniProt P12287); test: 20-minute test: BlaR-CTD coupled to gold beads, membrane test device, milk; format: binding; settings: 47° C.; for Intensity 1st band: 20-minute test, scale 0 to 10, reference band 6
T1 construct: uses the BlaR-CTD receptor coupled to gold beads
T1 sequence (P12287 354-601): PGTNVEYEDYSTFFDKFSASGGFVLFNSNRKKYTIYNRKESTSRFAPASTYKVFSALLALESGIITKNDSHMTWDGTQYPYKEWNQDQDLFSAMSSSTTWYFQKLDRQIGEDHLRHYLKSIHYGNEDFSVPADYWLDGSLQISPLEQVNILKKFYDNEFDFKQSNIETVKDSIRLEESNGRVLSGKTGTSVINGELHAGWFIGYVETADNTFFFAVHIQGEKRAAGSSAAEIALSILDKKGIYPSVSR
Description: (§1) This example illustrates the detection in milk of antibiotics containing a β-lactam ring, which are controlled by the health authorities. The test described in this example uses the BlaR-CTD receptor coupled to gold beads which serve as labelling agents, and uses a support in the form of a test device comprising a solid support to which membranes are attached.
6 samples of fresh milk containing 0; 20; 30; 40; 50 and 60 ppb of ceftiofur, respectively, are prepared. Each of these solutions is then analyzed in the following way.
(§2) A 200 μl aliquot sample of milk and 45.27 μl of solution prepared in Example 1.1.3 are taken and placed in a glass flask. This mixture is incubated for 18 minutes at 47° C. A test device is taken and placed vertically in the glass flask such that the first end of the test device is in contact with the mixture and such that the second end rests on the wall of the glass flask. The mixture is left to migrate on the test device, while incubating the assembly for 2 minutes at 47° C.
(§3) An intensity value ranging from 0 to 10 is attributed to the bands detected, the value 10 being given to the most intense band and the value 0 being given to the least intense band. According to this scale, a value of 6 is assigned to the reference band. The intensity of the signal observed in the first band is inversely proportional to the amount of ceftiofur present in the sample.
In this example, when the first band has an intensity less than that of the second band, the test is considered as being positive.

BlaR-CTD receptor [2] = biological target: T1, BlaR-CTD receptor; test: 3-minute rapid test: BlaR-CTD coupled to gold beads, membrane test device, milk; format: binding; settings: 47° C.; for concentration detected in a sample of milk: test carried out in 3 minutes, positive when 1st band less intense than 2nd band; for Intensity 1st band: 3-minute test, scale 0 to 10, reference band 6
Description: as §1
7 samples of fresh milk containing 0; 1; 2; 3; 4; 5 and 6 ppb of penicillin G, respectively, are prepared. Each of these solutions is then analyzed in the following way:
as §2, with “1 minute” for “18 minutes”
as §3, with “penicillin G” for “ceftiofur”
In this example, when the first band has an intesity less than that of the second band, the test is considered as being positive.

[3] = biological target: soluble exocellular D-alanyl-D-alanine carboxypeptidase (enzyme R39) (Actinomadura sp., UniProt P39045); settings: cited from earlier work
soluble exocellular D-alanyl-D-alanine carboxypeptidase (enzyme R39), sequence (P39045 50-515): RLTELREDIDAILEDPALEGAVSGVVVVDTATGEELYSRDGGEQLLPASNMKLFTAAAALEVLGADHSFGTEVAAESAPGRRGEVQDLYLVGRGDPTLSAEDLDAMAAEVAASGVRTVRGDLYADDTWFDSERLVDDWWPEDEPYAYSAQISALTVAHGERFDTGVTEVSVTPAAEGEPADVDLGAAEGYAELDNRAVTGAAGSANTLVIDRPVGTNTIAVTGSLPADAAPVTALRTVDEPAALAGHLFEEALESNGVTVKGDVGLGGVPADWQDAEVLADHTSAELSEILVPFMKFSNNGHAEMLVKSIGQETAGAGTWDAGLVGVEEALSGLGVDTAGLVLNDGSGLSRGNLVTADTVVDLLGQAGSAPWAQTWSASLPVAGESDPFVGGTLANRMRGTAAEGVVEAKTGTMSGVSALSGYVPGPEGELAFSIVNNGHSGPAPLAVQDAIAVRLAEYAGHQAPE

| SMILES | Intensity 1st band (BlaR-CTD receptor [1]; 20 ppb ceftiofur in milk) | Intensity 1st band (BlaR-CTD receptor [1]; 30 ppb ceftiofur in milk) | Intensity 1st band (BlaR-CTD receptor [1]; 40 ppb ceftiofur in milk) | Intensity 1st band (BlaR-CTD receptor [1]; 50 ppb ceftiofur in milk) | Intensity 1st band (BlaR-CTD receptor [1]; 60 ppb ceftiofur in milk) | concentration detected in a sample of milk (BlaR-CTD receptor [1]; test in 20 minutes, positive when 1st band less intense than 2nd band) | concentration detected in a sample of milk (BlaR-CTD receptor [2]) | Intensity 1st band (BlaR-CTD receptor [2]; 1 ppb penicillin G in milk) | Intensity 1st band (BlaR-CTD receptor [2]; 2 ppb penicillin G in milk) | Intensity 1st band (BlaR-CTD receptor [2]; 3 ppb penicillin G in milk) | Intensity 1st band (BlaR-CTD receptor [2]; 4 ppb penicillin G in milk) | Intensity 1st band (BlaR-CTD receptor [2]; 5 ppb penicillin G in milk) | Intensity 1st band (BlaR-CTD receptor [2]; 6 ppb penicillin G in milk) | concentration determined in milk ([3]; total incubation time of 5 minutes) | concentration determined in milk ([3]; total incubation time of 15 minutes) |
| --- | --- | --- | --- | --- | --- | --- | --- | --- | --- | --- | --- | --- | --- | --- | --- |
| CO/N=C(\C(=O)N[C@@H]1C(=O)N2C(C(=O)O)=C(CSC(=O)c3ccco3)CS[C@H]12)c1csc(N)n1 [ceftiofur] | 6 | 5 | 4 | 3 | 3 | 30 ppb | – | – | – | – | – | – | – | – | – |
| CC(=O)OCC1=C(C(=O)O)N2C(=O)[C@@H](NC(=O)CSc3ccncc3)[C@H]2SC1 [cephapirin] | – | – | – | – | – | – | 20 ppb | – | – | – | – | – | – | – | – |
| CC1(C)S[C@@H]2[C@H](NC(=O)Cc3ccccc3)C(=O)N2[C@H]1C(=O)O [penicillin G] | – | – | – | – | – | – | less than 4 ppb | 9 | 9 | 4 | 0 | 0 | 0 | 10 ppb | about 2.5 ppb |
